# Assay results reported in patent publication EP0740252A2, “Apparatus, method, and standard curve for measuring clearance” (KUREHA KAGAKU KOGYO KABUSHIKI KAISHA, priority 1995, dated 1996).
# Values joined by “and” are separate entries in the source; they are usually repeats but may differ in a detail not shown here. Identical values can stand only once.
# Experiments:
# [1] = Meglumine iothalamate clearance from one plasma sample by first standard function, dog; type: in vivo, female beagle dogs; conditions: healthy dog 1919 (two tests), first standard function (Fig. 18), per blood collection time (20-90 min)
# Procedure: A first standard function [CL × T - Cp/D curve] was formed following the same procedures as in Example 1. The first clearance calculation program 34 was executed. In this execution, the clearances of the four dogs (two tests were conducted for dog Nos. 1919 and 1367 at an interval of two months) in Example 12 were calculated by the first standard function (Fig. 18) obtained in Example 12, using the data for the respective blood collection times (except for the values obtained 5 min after the administration). More specifically, the ratio values of the meglumine iothalamate concentrations (Cp) in the plasma samples corresponding to the respective blood collection times to the meglumine iothalamate dose (D) were calculated, and the products of the clearance (CL) and the blood collection times (T) were calculated from the first standard function using the ratio values. The products were divided by the blood collection times (T), respectively, thereby obtaining the clearances (CL).
# [2] = Meglumine iothalamate clearance by AUC method, dog; type: in vivo, female beagle dogs; conditions: healthy dog 1919 (two tests at an interval of two months), 3% meglumine iothalamate solution 0.3 mℓ/kg i.v.
# Procedure: A total of […] female beagle dogs (body weight: 8.5 to 14 kg) consisting of one healthy dog (dog No. 1919), three partially nephrectomized dogs (chronic renal failure model) (dog Nos. 1367, 1253, and 1104) were used.
# A 3% inulin-containing iothalamate solution was administered once in the amount of 0.3 mℓ/kg to each beagle dog from its foreleg vein. The meglumine iothalamate in the 3% inulin-containing iothalamate solution was obtained by diluting a conray injection solution (60 W/V%) (meglumine iothalamate injection solution of the Japanese Pharmacopoeia, available from DAIICHI PHARMACEUTICAL CO., LTD.) with saline to adjust the concentration to 3%.
# Blood collection operations were performed five times with intervals after the administration. The blood collection times were, e.g., 5 min, 20 min, 40 min, 60 min, and 90 min after the administration for the healthy dog, and, e.g., 5 min, 40 min, 80 min, 120 min, and 180 min after the administration for other dogs.
# The concentration of meglumine iothalamate in the plasma was measured as follows. 400 µℓ of a 0.1N-HCl-methanol (1 : 9) solution mixture were added to 100 µℓ of a dog plasma sample, and the resultant solution was stirred well and subjected to centrifugal separation at 16,000 rpm for 10 min. The resultant supernatant was analyzed by liquid chromatography. […]
compound,measurement,setting,value
"CNC(=O)c1c(I)c(NC(C)=O)c(I)c(C(=O)O)c1I [Iothalamic Acid, N-methylglucamine-5-acetamido-2,4,6-triiodo-N-methylisophthalate]",clearance,"[1]; female, beagle, dog, plasma, intravenous, 0.3 mℓ/kg, read-out: Method of Present Invention: Clearance (2)",52.1 mL/min
same,Method of Present Invention: Clearance (2),[1]; blood collected at 20 min,57.4 mL/min
same,Method of Present Invention: Clearance (2),[1]; blood collected at 40 min,53.0 mL/min
same,Method of Present Invention: Clearance (2),[1]; blood collected at 50 min,48.9 mL/min
same,Method of Present Invention: Clearance (2),[1]; blood collected at 60 min,52.5 mL/min
same,Method of Present Invention: Clearance (2),[1]; blood collected at 70 min,48.4 mL/min
same,Method of Present Invention: Clearance (2),[1]; blood collected at 90 min,42.0 mL/min and 43.9 mL/min
same,clearance,"[2]; female, beagle, dog, plasma, iv, 0.3 mℓ/kg, read-out: Conventional Method: Clearance (1)",45.6 mL/min
same,Conventional Method: Clearance (1),[2],49.1 mL/min
